Results on six molecules are retold here after ChEMBL document CHEMBL1201862, “PubChem BioAssay data set” (2004).

One assay concerns Escherichia coli. In words: microbe, parasite or virus in culture.
The nature of assay [1]: Luminescent dose response cell-based high throughput screening assay for inhibitors of the Janus kinase 2 mutant JAK2V617F. [Related pubchem assays: 1446 (Primary screen.), 1521 (Confirmation assay.), 1486 (Counter screen.)]. It counts as functional. For orientation: Counterscreens check selectivity or assay interference.
Assay [2] has as its target T1, Microphthalmia-associated transcription factor (Homo sapiens, UniProt O75030).
T1 sequence (O75030 whole entry): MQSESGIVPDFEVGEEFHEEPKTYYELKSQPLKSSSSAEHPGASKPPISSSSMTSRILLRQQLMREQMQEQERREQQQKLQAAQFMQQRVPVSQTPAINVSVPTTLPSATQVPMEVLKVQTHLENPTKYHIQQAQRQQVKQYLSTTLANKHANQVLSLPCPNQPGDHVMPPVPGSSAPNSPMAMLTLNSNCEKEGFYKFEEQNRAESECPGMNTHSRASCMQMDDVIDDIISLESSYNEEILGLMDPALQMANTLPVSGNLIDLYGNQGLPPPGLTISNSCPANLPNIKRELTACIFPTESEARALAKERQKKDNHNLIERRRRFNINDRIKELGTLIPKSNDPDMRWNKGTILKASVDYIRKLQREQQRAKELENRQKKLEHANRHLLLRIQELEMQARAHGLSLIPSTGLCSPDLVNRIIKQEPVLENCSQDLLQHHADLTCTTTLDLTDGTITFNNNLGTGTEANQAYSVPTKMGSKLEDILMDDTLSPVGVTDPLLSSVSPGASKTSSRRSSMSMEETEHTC
Put plainly: reducers of TRPM1 reporter luminescence, concentration series – cell-based, SK-MEL-5, cherry-picked, set 3, MITF inhibitor project, dose response (AID 493073).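 Also: SK-MEL-5 melanoma cells with luciferase driven by the MITF target TRPM1 promoter.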 It counts as functional.

The test system of another assay is A-375. In words: MITF: Counter assay: A375 proliferation Measured in Cell-Based System Using Plate Reader - 2084-03_Inhibitor_Dose_DryPowder_Activity. [Related pubchem assays (depositor defined):AID488944]. It is filed as functional. Particulars: Homo sapiens.
In a further assay the target is Paired box protein Pax-8 (Homo sapiens, UniProt Q06710). Put plainly: PAX8 transcriptional activity inhibition in RMG-I – RMG-I cells, luciferase, cherry-pick, dose response (AID 687027).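 Also: luciferase reporter driven by Pax8 target thyroperoxidase promoter measured by SteadyGlo luminescence.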 It is filed as functional, cell-based.
For a further assay, the target named is Trypsin (Sus scrofa, UniProt P00761). Put plainly: trypsin protease activity blockade – biochemical, quenched peptide fluorescence, cherry-pick, selectivity assay for Rce1 protease inhibitor project, dose response (AID 488789).
For the next assay, the target named is CAAX prenyl protease 2 (Homo sapiens, UniProt Q9Y256). In words: inhibition of Ras-converting CAAX protease Rce1 – biochemical, yeast membranes, quenched-peptide fluorescence, cherry-pick, dose response (AID 588849).
In the next assay the test system is Vero. In words: viability of Vero cells under compound – cytotoxicity control for flavivirus capping enzyme inhibitors (AID 588742). It is filed as functional. Particulars: Chlorocebus sabaeus.
Another assay has as its target Beta-arrestin-1 (Homo sapiens, UniProt P49407). In words: beta-arrestin/AP2 interaction blockers, potency – biochemical, cherry pick 1, beta2-adaptin appendage, flow cytometry, dose response (AID 588783). It counts as functional. A general note: Flow cytometry measures light scatter and fluorescence of single cells or particles in a stream.
The next assay deals with Genome polyprotein (dengue virus type 2, UniProt P29990). In words: flavivirus cap methylation enzyme inhibition – biochemical, confirmation dose response, primary screen (AID 588689). It counts as functional.
Assay [3] has as its target T2, Polyadenylate-binding protein 1 (Homo sapiens, UniProt P11940). In words: MLLE binding blockers, Cy5 peptide tracer – biochemical, fluorescence polarization, Cy5-PAM2 peptide, secondary, miRNA deadenylation inhibitor project, dose response (AID 602260). It counts as functional. Conditions: read-out: IC50_Mean. For orientation: Polarisation of emitted light reports the rotation of a fluorescent probe.

Assay [4] concerns the target T2, Polyadenylate-binding protein 1. In words: MLLE domain peptide-binding blockers, IC50 – biochemical, fluorescence polarization, FITC-PAM2 peptide, dose response (AID 602259). It counts as functional. Particulars: read-out: IC50_Mean.
The next assay concerns the target T3, Protein skinhead-1 (Caenorhabditis elegans, UniProt P34707).
T3 sequence (P34707 whole entry): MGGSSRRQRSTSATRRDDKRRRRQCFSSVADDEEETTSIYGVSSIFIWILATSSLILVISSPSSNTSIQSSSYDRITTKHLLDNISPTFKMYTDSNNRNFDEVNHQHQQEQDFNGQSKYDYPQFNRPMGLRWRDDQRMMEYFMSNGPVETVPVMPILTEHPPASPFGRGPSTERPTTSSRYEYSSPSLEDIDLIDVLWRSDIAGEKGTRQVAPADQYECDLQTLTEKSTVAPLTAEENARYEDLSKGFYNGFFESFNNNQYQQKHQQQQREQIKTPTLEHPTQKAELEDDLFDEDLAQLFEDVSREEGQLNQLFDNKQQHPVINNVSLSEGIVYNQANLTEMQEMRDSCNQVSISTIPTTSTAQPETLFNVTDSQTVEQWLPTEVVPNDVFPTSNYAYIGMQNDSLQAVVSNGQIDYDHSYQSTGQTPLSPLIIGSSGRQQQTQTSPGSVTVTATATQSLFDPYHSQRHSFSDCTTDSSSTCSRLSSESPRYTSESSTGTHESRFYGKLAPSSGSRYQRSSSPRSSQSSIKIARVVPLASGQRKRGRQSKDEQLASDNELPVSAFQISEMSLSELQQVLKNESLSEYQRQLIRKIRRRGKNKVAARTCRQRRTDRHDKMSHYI
It is filed as functional.

Assay [5] can be described thus: viability loss in HeLa cells – cytotoxicity control for MgcRacGAP inhibitor project, dose response (AID 624300). It counts as functional.
Assay [6] addresses T4, Rac GTPase-activating protein 1 (Homo sapiens, UniProt Q9H0H5).
T4 sequence (Q9H0H5 whole entry): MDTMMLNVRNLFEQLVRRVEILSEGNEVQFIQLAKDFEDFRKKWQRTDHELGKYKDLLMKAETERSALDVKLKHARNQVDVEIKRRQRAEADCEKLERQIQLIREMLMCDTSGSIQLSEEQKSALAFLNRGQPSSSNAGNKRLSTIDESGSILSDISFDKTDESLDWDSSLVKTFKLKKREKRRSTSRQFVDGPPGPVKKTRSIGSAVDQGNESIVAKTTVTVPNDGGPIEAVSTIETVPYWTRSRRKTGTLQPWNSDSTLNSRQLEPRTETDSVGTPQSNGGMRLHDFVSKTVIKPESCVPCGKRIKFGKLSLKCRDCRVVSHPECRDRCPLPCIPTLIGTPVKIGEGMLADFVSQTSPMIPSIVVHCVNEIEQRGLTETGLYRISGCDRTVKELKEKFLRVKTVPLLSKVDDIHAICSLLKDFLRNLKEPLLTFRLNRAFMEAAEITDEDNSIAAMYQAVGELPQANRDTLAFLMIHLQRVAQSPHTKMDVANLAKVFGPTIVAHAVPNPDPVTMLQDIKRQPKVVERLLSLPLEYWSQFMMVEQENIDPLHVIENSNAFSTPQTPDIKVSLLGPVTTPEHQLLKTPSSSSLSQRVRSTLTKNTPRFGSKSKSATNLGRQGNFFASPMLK
Put plainly: blockers of MgcRacGAP-driven Rac1 GTP hydrolysis – biochemical, ADP Hunter fluorescence, primary and confirmatory, confirmation (AID 624330). It is filed as functional.

The target of another assay is T5, Caspase-6 (Homo sapiens, UniProt P55212).
T5 sequence (P55212 whole entry): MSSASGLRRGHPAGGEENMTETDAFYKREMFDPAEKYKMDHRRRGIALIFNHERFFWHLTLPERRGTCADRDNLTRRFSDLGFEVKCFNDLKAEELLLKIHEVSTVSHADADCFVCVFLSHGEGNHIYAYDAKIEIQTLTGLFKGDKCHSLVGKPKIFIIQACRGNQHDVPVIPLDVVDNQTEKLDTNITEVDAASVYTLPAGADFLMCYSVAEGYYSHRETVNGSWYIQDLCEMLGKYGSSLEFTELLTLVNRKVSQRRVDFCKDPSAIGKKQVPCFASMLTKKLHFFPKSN
Put plainly: inhibition of CASP6 peptide cleavage – biochemical, VEID-R110 fluorescence, cherry-pick, dose response (AID 720632).

Assay [7] concerns the target T6, Histone-lysine N-methyltransferase NSD2 (Homo sapiens, UniProt O96028).
T6 sequence (O96028 whole entry): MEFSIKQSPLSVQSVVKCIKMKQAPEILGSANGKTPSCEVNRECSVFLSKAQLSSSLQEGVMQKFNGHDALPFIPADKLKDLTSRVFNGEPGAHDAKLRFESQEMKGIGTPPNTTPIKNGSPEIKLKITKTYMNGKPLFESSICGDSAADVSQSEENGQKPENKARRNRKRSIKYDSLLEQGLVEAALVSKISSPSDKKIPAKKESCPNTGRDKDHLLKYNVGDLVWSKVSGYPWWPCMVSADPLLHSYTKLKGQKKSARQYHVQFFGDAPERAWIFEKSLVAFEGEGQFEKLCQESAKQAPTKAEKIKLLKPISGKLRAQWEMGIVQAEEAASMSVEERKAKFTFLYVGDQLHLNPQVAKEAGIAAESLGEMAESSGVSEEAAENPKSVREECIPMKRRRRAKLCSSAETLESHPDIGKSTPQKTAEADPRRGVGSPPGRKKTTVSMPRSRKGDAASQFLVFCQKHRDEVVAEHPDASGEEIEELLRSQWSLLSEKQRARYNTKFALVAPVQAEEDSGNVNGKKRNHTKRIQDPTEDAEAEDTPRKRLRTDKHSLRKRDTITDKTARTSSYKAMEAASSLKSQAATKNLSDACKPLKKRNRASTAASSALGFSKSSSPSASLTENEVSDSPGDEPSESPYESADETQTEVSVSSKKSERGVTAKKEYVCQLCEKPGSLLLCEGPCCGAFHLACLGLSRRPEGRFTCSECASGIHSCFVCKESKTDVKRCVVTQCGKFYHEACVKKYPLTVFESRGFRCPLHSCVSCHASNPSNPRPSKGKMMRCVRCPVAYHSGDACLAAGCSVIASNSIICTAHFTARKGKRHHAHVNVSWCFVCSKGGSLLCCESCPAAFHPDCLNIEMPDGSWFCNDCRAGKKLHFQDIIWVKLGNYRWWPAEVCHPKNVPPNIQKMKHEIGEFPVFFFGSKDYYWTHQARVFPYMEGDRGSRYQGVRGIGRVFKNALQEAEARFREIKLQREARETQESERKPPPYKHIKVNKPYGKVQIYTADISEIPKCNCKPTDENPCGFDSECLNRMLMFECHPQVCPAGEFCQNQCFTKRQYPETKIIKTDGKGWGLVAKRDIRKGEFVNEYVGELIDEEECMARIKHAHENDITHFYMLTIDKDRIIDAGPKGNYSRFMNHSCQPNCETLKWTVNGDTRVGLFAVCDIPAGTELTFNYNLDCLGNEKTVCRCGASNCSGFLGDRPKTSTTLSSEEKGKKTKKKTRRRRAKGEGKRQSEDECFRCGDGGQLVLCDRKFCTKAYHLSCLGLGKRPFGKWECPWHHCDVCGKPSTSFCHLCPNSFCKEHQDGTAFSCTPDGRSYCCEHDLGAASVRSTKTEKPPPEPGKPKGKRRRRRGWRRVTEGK
It counts as biochemical.

The target of assay [8] is Voltage-gated inwardly rectifying potassium channel KCNH2 (Homo sapiens, UniProt Q12809). Conditions: Potency.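 Also: confirmatory quantitative high-throughput screen measuring inhibition of hERG channel activity.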
For assay [9], the target named is Luciferin 4-monooxygenase (Photuris pensylvanica, UniProt Q27757). In words: inhibition of Cell Titer Glo luciferase signal – biochemical, luminescence, cherry-picks, counter-screen for HSF-1 reporter inhibitor project, dose response (AID 588847).
The nature of assay [10]: blockers of bursicon-stimulated LGR2 cAMP reporter – cell-based, HEK293, CRE-luciferase reporter, cherry pick, set 2, dose response (AID 743343).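 Also: transfected cells were stimulated with diluted bursicon conditioned medium after compound addition.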 It counts as functional.
Assay [11] in a line: blockade of melanocortin 4 receptor signaling – cell-based, plate reader, cherry pick, counter-screen for LGR2 antagonist project, dose response (AID 743444).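 Also: transfected HEK 293 cells stimulated with alpha-MSH peptide; potency of inhibitors of the alpha-MSH evoked signal.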 It counts as functional.

Activity calls are given as the source filed them.

T2 sequence (P11940 whole entry): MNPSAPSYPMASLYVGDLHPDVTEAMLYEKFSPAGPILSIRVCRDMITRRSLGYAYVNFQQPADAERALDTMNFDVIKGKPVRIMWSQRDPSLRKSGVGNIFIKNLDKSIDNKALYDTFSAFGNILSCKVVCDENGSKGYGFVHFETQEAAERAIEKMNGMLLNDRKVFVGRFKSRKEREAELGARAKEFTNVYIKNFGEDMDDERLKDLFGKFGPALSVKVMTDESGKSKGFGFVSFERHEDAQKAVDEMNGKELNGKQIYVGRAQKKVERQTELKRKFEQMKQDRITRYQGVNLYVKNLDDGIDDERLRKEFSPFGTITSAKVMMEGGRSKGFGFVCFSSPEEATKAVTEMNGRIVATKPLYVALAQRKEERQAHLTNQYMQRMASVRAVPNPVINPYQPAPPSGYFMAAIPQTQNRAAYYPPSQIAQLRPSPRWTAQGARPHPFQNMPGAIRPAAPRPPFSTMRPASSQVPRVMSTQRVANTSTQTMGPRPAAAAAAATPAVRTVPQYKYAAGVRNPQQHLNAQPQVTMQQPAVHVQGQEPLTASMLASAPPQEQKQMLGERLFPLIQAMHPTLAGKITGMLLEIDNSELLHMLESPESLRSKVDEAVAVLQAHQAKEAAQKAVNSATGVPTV
Chain of Paired box protein Pax-8 (Q06710 whole entry): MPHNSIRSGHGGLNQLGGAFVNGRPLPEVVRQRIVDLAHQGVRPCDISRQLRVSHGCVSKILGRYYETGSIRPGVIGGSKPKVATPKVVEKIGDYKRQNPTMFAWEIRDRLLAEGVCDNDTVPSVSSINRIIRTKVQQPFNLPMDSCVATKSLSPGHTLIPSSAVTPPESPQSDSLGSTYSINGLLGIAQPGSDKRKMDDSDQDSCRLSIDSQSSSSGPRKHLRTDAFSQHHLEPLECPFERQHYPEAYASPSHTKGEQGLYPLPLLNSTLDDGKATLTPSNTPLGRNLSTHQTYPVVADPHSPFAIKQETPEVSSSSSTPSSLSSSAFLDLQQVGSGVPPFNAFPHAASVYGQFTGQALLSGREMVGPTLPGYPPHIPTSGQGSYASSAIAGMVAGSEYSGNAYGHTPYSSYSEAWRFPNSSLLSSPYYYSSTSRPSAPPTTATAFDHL
Chain of CAAX prenyl protease 2 (Q9Y256 whole entry): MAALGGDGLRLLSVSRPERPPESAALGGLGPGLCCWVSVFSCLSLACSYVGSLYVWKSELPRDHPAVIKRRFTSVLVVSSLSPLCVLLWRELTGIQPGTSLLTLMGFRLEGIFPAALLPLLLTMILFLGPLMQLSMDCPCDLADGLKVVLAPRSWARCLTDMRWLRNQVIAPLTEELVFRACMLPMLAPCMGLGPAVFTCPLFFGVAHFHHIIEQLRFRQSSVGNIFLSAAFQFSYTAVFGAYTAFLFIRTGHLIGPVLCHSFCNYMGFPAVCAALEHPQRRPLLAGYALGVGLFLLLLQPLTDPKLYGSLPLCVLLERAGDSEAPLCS
Chain of Voltage-gated inwardly rectifying potassium channel KCNH2 (Q12809 whole entry): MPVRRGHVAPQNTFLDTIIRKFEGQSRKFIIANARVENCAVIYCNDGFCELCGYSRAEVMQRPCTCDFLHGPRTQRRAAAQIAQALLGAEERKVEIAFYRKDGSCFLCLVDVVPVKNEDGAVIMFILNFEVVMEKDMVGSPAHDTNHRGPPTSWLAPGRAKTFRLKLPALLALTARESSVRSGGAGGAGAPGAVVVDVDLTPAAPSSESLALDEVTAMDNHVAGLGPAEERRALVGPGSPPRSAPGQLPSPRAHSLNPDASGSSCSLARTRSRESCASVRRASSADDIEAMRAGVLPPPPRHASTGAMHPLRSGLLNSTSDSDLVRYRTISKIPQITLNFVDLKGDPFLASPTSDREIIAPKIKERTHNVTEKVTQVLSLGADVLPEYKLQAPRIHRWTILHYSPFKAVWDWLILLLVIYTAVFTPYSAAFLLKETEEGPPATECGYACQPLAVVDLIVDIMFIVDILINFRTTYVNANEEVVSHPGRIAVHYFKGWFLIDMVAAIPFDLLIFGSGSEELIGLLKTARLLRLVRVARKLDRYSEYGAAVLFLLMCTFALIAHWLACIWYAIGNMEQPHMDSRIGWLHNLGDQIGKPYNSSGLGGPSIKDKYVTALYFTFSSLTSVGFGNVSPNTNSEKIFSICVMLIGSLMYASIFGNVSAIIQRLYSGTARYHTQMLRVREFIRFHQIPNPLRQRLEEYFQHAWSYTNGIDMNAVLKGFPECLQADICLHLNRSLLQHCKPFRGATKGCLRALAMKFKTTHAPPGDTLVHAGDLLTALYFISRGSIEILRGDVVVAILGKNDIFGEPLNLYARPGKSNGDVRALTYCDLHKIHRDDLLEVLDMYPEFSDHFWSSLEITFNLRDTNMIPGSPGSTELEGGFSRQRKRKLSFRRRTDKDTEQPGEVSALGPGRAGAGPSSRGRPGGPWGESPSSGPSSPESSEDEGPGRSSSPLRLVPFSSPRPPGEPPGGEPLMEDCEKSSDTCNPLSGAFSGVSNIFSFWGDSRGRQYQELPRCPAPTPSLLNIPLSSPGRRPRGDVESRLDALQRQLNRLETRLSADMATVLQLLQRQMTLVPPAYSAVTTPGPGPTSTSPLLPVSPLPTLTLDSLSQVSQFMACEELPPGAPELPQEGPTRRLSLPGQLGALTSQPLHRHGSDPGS
Chain of Beta-arrestin-1 (P49407 whole entry): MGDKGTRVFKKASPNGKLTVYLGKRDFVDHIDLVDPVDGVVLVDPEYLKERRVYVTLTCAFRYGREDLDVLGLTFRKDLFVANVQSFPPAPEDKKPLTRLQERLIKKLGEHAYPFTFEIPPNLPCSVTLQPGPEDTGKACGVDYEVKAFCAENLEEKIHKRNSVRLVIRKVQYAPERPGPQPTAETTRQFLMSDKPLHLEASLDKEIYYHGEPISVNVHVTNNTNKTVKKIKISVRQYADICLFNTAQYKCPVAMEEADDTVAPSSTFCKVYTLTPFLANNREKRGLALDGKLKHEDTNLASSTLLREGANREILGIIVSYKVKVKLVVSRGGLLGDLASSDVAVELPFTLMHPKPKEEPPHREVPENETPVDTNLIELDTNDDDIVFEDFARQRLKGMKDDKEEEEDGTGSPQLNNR
Chain of Genome polyprotein (P29990 2492-3391 limits assumed): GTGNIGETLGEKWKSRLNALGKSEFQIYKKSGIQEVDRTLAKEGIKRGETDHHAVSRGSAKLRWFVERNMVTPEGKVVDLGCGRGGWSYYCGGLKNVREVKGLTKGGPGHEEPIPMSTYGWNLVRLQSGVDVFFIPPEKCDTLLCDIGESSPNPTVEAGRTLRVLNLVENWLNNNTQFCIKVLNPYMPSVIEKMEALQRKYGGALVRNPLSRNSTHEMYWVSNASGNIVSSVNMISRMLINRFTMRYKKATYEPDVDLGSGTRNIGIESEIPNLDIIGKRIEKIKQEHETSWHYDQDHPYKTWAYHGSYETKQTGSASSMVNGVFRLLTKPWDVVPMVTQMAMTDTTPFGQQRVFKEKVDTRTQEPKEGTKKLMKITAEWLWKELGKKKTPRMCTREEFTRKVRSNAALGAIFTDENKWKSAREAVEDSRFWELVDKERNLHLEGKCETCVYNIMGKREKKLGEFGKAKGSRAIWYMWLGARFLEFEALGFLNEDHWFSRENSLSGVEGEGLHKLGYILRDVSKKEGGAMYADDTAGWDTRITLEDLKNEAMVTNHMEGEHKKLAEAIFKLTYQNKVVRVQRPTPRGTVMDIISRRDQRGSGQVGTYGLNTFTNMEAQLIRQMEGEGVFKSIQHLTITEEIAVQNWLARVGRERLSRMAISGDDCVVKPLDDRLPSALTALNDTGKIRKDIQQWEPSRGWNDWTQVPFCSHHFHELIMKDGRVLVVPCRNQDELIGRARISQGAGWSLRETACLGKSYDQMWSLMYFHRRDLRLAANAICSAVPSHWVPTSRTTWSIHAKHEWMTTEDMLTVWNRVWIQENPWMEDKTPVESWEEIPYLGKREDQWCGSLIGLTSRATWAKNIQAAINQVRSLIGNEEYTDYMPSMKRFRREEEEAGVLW
Chain of Trypsin (P00761 whole entry): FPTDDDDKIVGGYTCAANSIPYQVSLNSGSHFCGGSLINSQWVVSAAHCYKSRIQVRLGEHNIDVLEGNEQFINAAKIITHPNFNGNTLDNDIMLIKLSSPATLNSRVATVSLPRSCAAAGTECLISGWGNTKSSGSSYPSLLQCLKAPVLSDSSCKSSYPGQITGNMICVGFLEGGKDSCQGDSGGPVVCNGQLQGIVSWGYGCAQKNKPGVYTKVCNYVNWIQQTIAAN
Chain of Luciferin 4-monooxygenase (Q27757 whole entry): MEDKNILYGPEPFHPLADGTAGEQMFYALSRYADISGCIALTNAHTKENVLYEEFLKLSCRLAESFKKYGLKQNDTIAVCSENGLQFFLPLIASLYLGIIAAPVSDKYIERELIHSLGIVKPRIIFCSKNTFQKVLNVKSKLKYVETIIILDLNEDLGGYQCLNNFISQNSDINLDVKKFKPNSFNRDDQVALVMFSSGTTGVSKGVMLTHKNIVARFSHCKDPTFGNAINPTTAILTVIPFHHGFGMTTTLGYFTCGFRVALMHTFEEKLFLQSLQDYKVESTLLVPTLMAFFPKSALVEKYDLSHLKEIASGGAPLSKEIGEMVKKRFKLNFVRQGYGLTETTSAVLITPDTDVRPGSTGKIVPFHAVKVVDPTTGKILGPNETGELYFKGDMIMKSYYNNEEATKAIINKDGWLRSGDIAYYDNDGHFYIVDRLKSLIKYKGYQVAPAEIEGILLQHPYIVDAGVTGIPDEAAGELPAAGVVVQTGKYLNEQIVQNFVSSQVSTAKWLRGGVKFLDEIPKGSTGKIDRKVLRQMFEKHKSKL

As usually defined, the AC50 is the concentration at which the activity in the assay is half-maximal. As for `COC(=O)c1ccc(Cl)cc1NC(=O)/C=C/c1ccc(C)o1`, the concentration at half-maximal activity (AC50) in the assay with Escherichia coli is 83 µM (active).
Take `Cc1ccc2nc(C)cc(Nc3ccc([N+](=O)[O-])cc3)c2c1`: in [1], the IC50 is 1.29 µM (active). Besides, the half-maximal activity concentration (AC50) in assay [2] is 5.88 µM (active); in the assay with A-375, 24.7 µM (active); at Paired box protein Pax-8 it was 5.33 µM (active).
With `CC(=O)NN1C(=O)c2ccccc2NC1c1ccoc1` (configuration not stated), the half-maximal activity concentration (AC50) is 32.4 µM (active) on Trypsin and > 100 µM (inactive) at CAAX prenyl protease 2.
As a reminder, the CC50 is the concentration giving 50% cytotoxicity. With `O=C1C(Br)=C(N2CCN(CCOCCO)CC2)C(=O)c2c(O)ccc(O)c21`, the CC50 in the assay with Vero is 8.58 µM (active); in assay [5], 12.6 µM (active). Further, the IC50 on Beta-arrestin-1 was 7.46 µM (active); on Genome polyprotein it was 5.11 µM (active); in [3] it was > 66 µM (inactive); in assay [4], 38.7 µM (inactive); at Protein skinhead-1, 79.6 µM (inactive); in assay [6], 34.8 µM (active). The AC50 on Paired box protein Pax-8 was 7.03 µM (active); on Caspase-6, 0.343 µM (active); in assay [7] it was 7.21 µM (active).
For `C=CCN1CC[C@]23c4c5ccc(O)c4O[C@@H]2/C(=N/N=C2\CC[C@@]4(O)C6Cc7ccc(O)c8c7[C@@]4(CCN6CC=C)[C@@H]2O8)CC[C@@]3(O)C1C5`, the half-maximal activity concentration (AC50) in [8] was 20 µM (inconclusive).
Consider `CCS(=O)(=O)N1Cc2ccccc2CC1C(=O)Nc1nc2ccccc2s1` (configuration not stated), for which the values for the AC50 in assay [9], in [10] and in assay [11] were 15.2 µM (active), 4.13 µM (active) and 4.56 µM (active), respectively.
